Source: PubChem BioAssay AID248 (DTP/NCI, 2004)
“And” between values parts separate entries of the source, which are not always exact repeats. Equal entries are not always repeated. Inconclusive results and toxic doses are left out. Rule as the data show it: active = T/C of 150% or more; inactive = T/C below 125%.

Test system: L1210 leukemia ip in BDF1 mice, survival T/C
Test: NCI In Vivo Anticancer Drug Screen. Data for tumor model L1210 Leukemia (intraperitoneal) in B6D2F1 (BDF1) mice
Conditions: endpoint: mean survival time, higher = longer survival
In short: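 Antitumor effect is assessed in tumor-bearing animals. Survival in the compound arm is compared with a vehicle-dosed control arm and expressed as their quotient.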

[1] = dose: 12.5 mg/kg/injection, schedule: Q01DX009 (ip), vehicle: saline
[2] = dose: 12.5 mg/kg/injection, schedule: Q04DX003 (ip), vehicle: saline
[3] = dose: 25.0 mg/kg/injection, schedule: Q01DX009 (ip), vehicle: saline
[4] = dose: 25.0 mg/kg/injection, schedule: Q04DX003 (ip), vehicle: saline
[5] = dose: 100.0 mg/kg/injection, schedule: Q01DX009 (ip), vehicle: Klucel (hydroxypropylcellulose) (HPC)
[6] = dose: 200.0 mg/kg/injection, schedule: Q01DX009 (ip), vehicle: Klucel (hydroxypropylcellulose) (HPC)
[7] = dose: 100.0 mg/kg/injection, schedule: Q04DX003 (ip), vehicle: Klucel (hydroxypropylcellulose) (HPC)
[8] = dose: 200.0 mg/kg/injection, schedule: Q04DX003 (ip), vehicle: Klucel (hydroxypropylcellulose) (HPC)
[9] = dose: 400.0 mg/kg/injection, schedule: Q01DX009 (ip), vehicle: Klucel (hydroxypropylcellulose) (HPC)
[10] = dose: 400.0 mg/kg/injection, schedule: Q04DX003 (ip), vehicle: Klucel (hydroxypropylcellulose) (HPC)
[11] = dose: 100.0 mg/kg/injection, schedule: Q01DX001 (ip), vehicle: saline
[12] = dose: 200.0 mg/kg/injection, schedule: Q01DX001 (ip), vehicle: saline
[13] = dose: 400.0 mg/kg/injection, schedule: Q01DX001 (ip), vehicle: saline
[14] = dose: 100.0 mg/kg/injection, schedule: Q04DX003 (ip), vehicle: saline with Tween-80
[15] = dose: 200.0 mg/kg/injection, schedule: Q04DX003 (ip), vehicle: saline with Tween-80
[16] = dose: 400.0 mg/kg/injection, schedule: Q04DX003 (ip), vehicle: saline with Tween-80

Measured: T/C

CC(C)CC(NC(=O)C(C)NC(=O)OCc1ccccc1)C(=O)NC(CC(C)C)C(=O)NCC(=O)NC1CCC2(C)C(CCC3C2CCC2(C)C(NC(=O)CNC(=O)C(CC(C)C)NC(=O)C(CC(C)C)NC(=O)C(C)NC(=O)OCc4ccccc4)CCC32)C1 (configuration not stated)
inactive: dose: 100.0 mg/kg/injection, schedule: Q01DX009 (sc), vehicle: steriod suspending solution 89 % of control | dose: 100.0 mg/kg/injection, schedule: Q04DX003 (sc), vehicle: steriod suspending solution 89 % of control | dose: 200.0 mg/kg/injection, schedule: Q01DX009 (sc), vehicle: steriod suspending solution 89 % of control | dose: 200.0 mg/kg/injection, schedule: Q04DX003 (sc), vehicle: steriod suspending solution 103 % of control | dose: 400.0 mg/kg/injection, schedule: Q01DX009 (sc), vehicle: steriod suspending solution 94 % of control | dose: 400.0 mg/kg/injection, schedule: Q04DX003 (sc), vehicle: steriod suspending solution 92 % of control

CCCCOc1ccc(CCOC(C)=O)cc1
inactive: dose: 100.0 mg/kg/injection, schedule: Q04DX002 (ip), vehicle: Klucel (hydroxypropylcellulose) (HPC) 112 % of control | dose: 200.0 mg/kg/injection, schedule: Q04DX002 (ip), vehicle: Klucel (hydroxypropylcellulose) (HPC) 108 % of control | dose: 400.0 mg/kg/injection, schedule: Q04DX002 (ip), vehicle: Klucel (hydroxypropylcellulose) (HPC) 104 % of control

O=[N+]([O-])c1ccc(C[n+]2ccc3ccccc3c2)cc1
inactive: [1] 96 % of control | [2] 97 % of control | [3] 95 % of control | [4] 92 % of control | dose: 50.0 mg/kg/injection, schedule: Q01DX009 (ip), vehicle: saline 101 % of control | dose: 50.0 mg/kg/injection, schedule: Q04DX003 (ip), vehicle: saline 92 % of control

COCn1cnc2c(F)ncnc21
inactive: dose: 6.25 mg/kg/injection, schedule: Q01DX009 (ip), vehicle: saline 94 % of control | dose: 6.25 mg/kg/injection, schedule: Q04DX003 (ip), vehicle: saline 101 % of control | [1] 100 % of control | [2] 104 % of control | [3] 101 % of control | [4] 102 % of control

CCCC(C)OS(=O)(=O)c1ccc(N)cc1 (configuration not stated)
inactive: [5] 113 % of control | [6] 95 % of control

CCOC(=O)/C(C#N)=C\c1oc2cc(C)c(C)cc2c1C
inactive: [5] 103 % of control | [7] 106 % of control | [6] 99 % of control | [8] 101 % of control | [9] 94 % of control | [10] 98 % of control

CC1CCN1c1ccccc1 (configuration not stated)
inactive: dose: 100.0 mg/kg/injection, schedule: Q04DX003 (ip), vehicle: acetone 88 % of control

CCOP(=O)(SCC)N(CC)CC (configuration not stated)
inactive: dose: 5.0 mg/kg/injection, schedule: Q01DX001 (ip), vehicle: saline 108 % of control | dose: 10.0 mg/kg/injection, schedule: Q01DX001 (ip), vehicle: saline 104 % of control | dose: 20.0 mg/kg/injection, schedule: Q01DX001 (ip), vehicle: saline 104 % of control | dose: 40.0 mg/kg/injection, schedule: Q01DX001 (ip), vehicle: saline 115 % of control | dose: 80.0 mg/kg/injection, schedule: Q01DX001 (ip), vehicle: saline 106 % of control

ClC(Cl)(Cl)c1ccn(-c2ccccc2)n1
inactive: dose: 25.0 mg/kg/injection, schedule: Q01DX001 (ip), vehicle: Klucel (hydroxypropylcellulose) (HPC) 110 % of control | dose: 50.0 mg/kg/injection, schedule: Q01DX001 (ip), vehicle: Klucel (hydroxypropylcellulose) (HPC) 100 % of control | dose: 100.0 mg/kg/injection, schedule: Q01DX001 (ip), vehicle: Klucel (hydroxypropylcellulose) (HPC) 101 % of control and 110 % of control

CN(C)S(=O)(=O)c1ccc(Nc2ccc(O)c3c2C(=O)c2c([N+](=O)[O-])ccc(O)c2C3=O)cc1
inactive: dose: 75.0 mg/kg/injection, schedule: Q01DX001 (ip), vehicle: steriod suspending solution 98 % of control | dose: 150.0 mg/kg/injection, schedule: Q01DX001 (ip), vehicle: steriod suspending solution 98 % of control | dose: 300.0 mg/kg/injection, schedule: Q01DX001 (ip), vehicle: steriod suspending solution 100 % of control

Cc1ccc(NC(=O)COc2cc(Cl)c(Cl)cc2Cl)c([N+](=O)[O-])c1
inactive: [5] 105 % of control | [7] 106 % of control | [6] 89 % of control | [8] 102 % of control | [9] 89 % of control | [10] 93 % of control

Cc1ccc(S(=O)(=O)N(CCO)CCO)cc1
inactive: [7] 101 % of control | [8] 100 % of control | [10] 92 % of control

[Cl][Sb]([c]1ccccc1)([c]1ccccc1)([c]1ccccc1)[c]1ccccc1
inactive: dose: 2.4 mg/kg/injection, schedule: Q01DX009 (ip), vehicle: saline 101 % of control | dose: 4.7 mg/kg/injection, schedule: Q01DX009 (ip), vehicle: saline 94 % of control | dose: 9.4 mg/kg/injection, schedule: Q01DX009 (ip), vehicle: saline 91 % of control

S=C(N/N=C1\C=Cc2ccccc2C1)N/N=C1\C=Cc2ccccc2C1
inactive: [11] 92 % of control | [12] 95 % of control | [13] 95 % of control

O=C(O)/C=C/C(=O)Nc1ccc(F)cc1F
inactive: [14] 100 % of control | [15] 100 % of control | [16] 107 % of control

Cc1c(C[N+](C)(C)C)c(=O)n(-c2ccccc2)n1C
inactive: [11] 104 % of control | [12] 98 % of control | [13] 98 % of control

CC(=O)N(c1ccncc1)c1ccc([N+](=O)[O-])cc1
inactive: dose: 50.0 mg/kg/injection, schedule: Q01DX009 (ip), vehicle: saline with Tween-80 94 % of control | dose: 100.0 mg/kg/injection, schedule: Q01DX009 (ip), vehicle: saline with Tween-80 97 % of control and 107 % of control | dose: 100.0 mg/kg/injection, schedule: Q04DX002 (ip), vehicle: saline with Tween-80 105 % of control and 108 % of control | [14] 98 % of control | dose: 200.0 mg/kg/injection, schedule: Q01DX009 (ip), vehicle: saline with Tween-80 94 % of control and 110 % of control | dose: 200.0 mg/kg/injection, schedule: Q04DX002 (ip), vehicle: saline with Tween-80 105 % of control and 109 % of control | [15] 98 % of control | dose: 400.0 mg/kg/injection, schedule: Q04DX002 (ip), vehicle: saline with Tween-80 92 % of control | [16] 104 % of control

NS(=O)(=O)c1ccc(N=Nc2ccc(O)c3ncccc23)cc1
inactive: [11] 101 % of control | [12] 98 % of control | [13] 98 % of control

CS(=O)(=O)NCCOc1ccc(C(=O)O)cc1
inactive: [7] 96 % of control | [8] 101 % of control | [10] 95 % of control
